# Measured values reported in paper PMC8999133, “Resemblance-Ranking Peptide Library to Screen for Binders to Antibodies on a Peptidomic Scale” (International Journal of Molecular Sciences, 2022).
# Key:
# rituximab = details: forward and reverse sequences; not bound by other anti-CD20 mAbs; cited from earlier work
# Text: The peptide […] from the resem ...
# rituximab (RTX) = experiment: First screen of the resemblance-ranking peptide library with RTX, fluorescent immunostaining; assay type: binding; details: RTX 30 µg/mL; among 160,000 peptides
# Description: Peptide microarrays: A peptide library of 160,000, peptides as well other peptide microarrays for the substitutions and the KD analysis, were fabricated via the ultra-high-density peptide microarray technology of AXXELERA (Karlsruhe, Germany) [49]. The AXXELERA technology allows for the 30 µm-sized square peptide spots with a pitch of 60 µm that corresponds to ca. 28,000 spots/cm^2.
# Immunostaining: Peptide microarrays were incubated with the monoclonal anti-CD20 antibody rituximab (Sigma-Aldrich, Steinheim, Germany) with concentrations depending on the type of experiment, diluted in PBS-T (Phosphate Buffered Saline with Tween) overnight at 4 °C. A rituximab concentration of 30 µg/mL was used for the first screen of the entire resemblance-ranking peptide library. Then, the peptide chips were stained with the fluorescently labeled secondary anti-human-IgG antibodies (Jackson ImmunoResearch, Philadelphia, PA, USA). The signals from the spots were read out with the confocal scanner Innoscan 1100 AL. The scans were performed in the red channel (635 nm), with a resolution of 2 µm/pixel, a speed of 35 µm/s, and a PMT gain of 9.
substance,measurement,setting,value
WPKWLE,binding to rituximab,rituximab,bind rituximab
LWKPWLQPCC,ratio to the maximum signal value,rituximab (RTX),0.13
ELWKPW,binding to rituximab,rituximab,bind rituximab
